Measured values published in patent US20250205185A1 (COSMED PHARMACEUTICAL CO., LTD., priority 2022, published 2025).

Experiment: Microscope observation of taurine crystals (Test Example 1)
Type: physicochemical
Details: observed with a microscope; for Maximum particle size (length) μm: length = major axis; for Maximum particle size (thickness) μm: thickness = minor axis

SMILES | Crystalline form | Maximum particle size (length) μm [μm] | Maximum particle size (thickness) μm [μm]
NCCS(=O)(=O)O [Comparative Example 1, taurine] | Massive | 700 | 160
NCCS(=O)(=O)O [Comparative Example 2, taurine] | Massive | 2000 | 300
NCCS(=O)(=O)O [Comparative Example 3, taurine, reference compound] | Massive | 6740 | 1680
NCCS(=O)(=O)O [Example 1, taurine] | Columnar | 280 | 145
NCCS(=O)(=O)O [Example 2, taurine] | Columnar | 150 | 80
NCCS(=O)(=O)O [Example 3, taurine] | Columnar | 150 | 100
NCCS(=O)(=O)O [Example 4, taurine] | Columnar | 100 | 70

The next lines start with the values.

Crystalline form | Maximum particle size (length) μm [μm] | Maximum particle size (thickness) μm [μm] | SMILES
Needle- | 800 | 55 | NCCS(=O)(=O)O [Example 5, taurine]
Needle- | 250 | 25 | NCCS(=O)(=O)O [Example 6, taurine]
Needle- | 250 | 20 | NCCS(=O)(=O)O [Example 7, taurine]
Needle- | 220 | 30 | NCCS(=O)(=O)O [Example 8, taurine]
Needle- | 150 | 40 | NCCS(=O)(=O)O [Example 9, taurine]
Needle- | 720 | 25 | NCCS(=O)(=O)O [Example 10, taurine]
Needle- | 370 | 20 | NCCS(=O)(=O)O [Example 11, taurine]
